Experiments:
erbB2 tyrosine kinase = target: T1, erbB2 tyrosine kinase (Homo sapiens, UniProt P04626); experiment: Test (a) protein tyrosine kinase phosphorylation assay, erbB2; format: biochemical; conditions: recombinant intracellular fragment, ATP at Km; read-out: IC50 Test (a): Inhibition of erbB2 tyrosine kinase protein phosphorylation
T1 construct: Recombinant intracellular fragments of EGFR, erbB2 and erbB4; made in house; host or cells: baculovirus/Sf21 insect cells (cleared lysate used)
T1 sequence (P04626 676-1255 limits assumed): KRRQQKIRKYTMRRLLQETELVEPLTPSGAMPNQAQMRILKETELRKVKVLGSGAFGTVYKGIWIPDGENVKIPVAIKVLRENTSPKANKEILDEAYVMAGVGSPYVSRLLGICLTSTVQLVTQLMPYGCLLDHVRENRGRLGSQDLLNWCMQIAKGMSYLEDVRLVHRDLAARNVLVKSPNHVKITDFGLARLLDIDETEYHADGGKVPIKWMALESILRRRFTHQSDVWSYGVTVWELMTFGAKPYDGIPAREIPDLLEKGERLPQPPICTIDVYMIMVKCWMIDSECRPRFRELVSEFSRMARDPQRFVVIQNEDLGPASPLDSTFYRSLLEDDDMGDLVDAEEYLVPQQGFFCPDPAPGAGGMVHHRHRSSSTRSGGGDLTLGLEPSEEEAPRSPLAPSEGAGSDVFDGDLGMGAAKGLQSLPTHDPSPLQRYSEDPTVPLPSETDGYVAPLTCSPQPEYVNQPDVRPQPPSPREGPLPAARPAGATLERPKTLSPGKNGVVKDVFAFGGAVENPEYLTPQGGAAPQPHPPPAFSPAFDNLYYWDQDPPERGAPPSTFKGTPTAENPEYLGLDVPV
Method: (§1) A) Protein Tyrosine Kinase Phosphorylation Assays
(§2) Recombinant intracellular fragments of EGFR, erbB2 and erbB4 (accession numbers X00588, X03363 and L07868 respectively) were cloned and expressed in the baculovirus/Sf21 system. Lysates were prepared from these cells by treatment with ice-cold lysis buffer (20 mM N-2-hydroxyethylpiperizine-N′-2-ethanesulfonic acid (HEPES) pH7.5, 150 mM NaCl, 10% glycerol, 1% Triton X-100, 1.5 mM MgCl2, 1 mM ethylene glycol-bis(β-aminoethyl ether) N′,N′,N′,N′-tetraacetic acid (EGTA), plus protease inhibitors and then cleared by centrifugation.
(§3) Constitutive kinase activity of these recombinant proteins was determined by their ability to phosphorylate a synthetic peptide (made up of a random co-polymer of Glutamic Acid, Alanine and Tyrosine in the ratio of 6:3:1). Specifically, Maxisorb™ 96-well immunoplates were coated with synthetic peptide (0.2 μg of peptide in a 200 μl phosphate buffered saline (PBS) solution and incubated at 4° C. overnight). Plates were washed in 50 mM HEPES pH 7.4 at room temperature to remove any excess unbound synthetic peptide. […]
(§4) The immobilised phospho-peptide product of the reaction was detected by immunological methods. […] After further washing, HRP activity in each well of the plate was measured […] using 22′-Azino-di-[3-ethylbenzthiazoline sulfonate (6)] diammonium salt crystals (ABTS™ from Roche) as a substrate.
(§5) Quantification of colour development and thus enzyme activity was achieved by the measurement of absorbance at 405 nm on a Molecular Devices ThermoMax microplate reader. Kinase inhibition for a given compound was expressed as an IC50 value. […] The range of phosphorylation was calculated from the positive (vehicle plus ATP) and negative (vehicle minus ATP) control values.

[1] = target: T2, erbB2 in a MCF7 derived cell line (Clone 24 cells) (Homo sapiens, UniProt P04626); experiment: Test (c) Clone 24 phospho-erbB2 cell assay; format: cell-based; conditions: Clone 24 cells (MCF7 transfected with full length erbB2), 4 hrs with compound; read-out: IC50 Test (c): Inhibition of erbB2 tyrosine kinase protein phosphorylation
T2 construct: a cell line that overexpresses full length wild type erbB2 protein; expressed in transfected cells; host or cells: MCF7 (breast carcinoma) cells, 'Clone 24'
T2 sequence (P04626 23-1255): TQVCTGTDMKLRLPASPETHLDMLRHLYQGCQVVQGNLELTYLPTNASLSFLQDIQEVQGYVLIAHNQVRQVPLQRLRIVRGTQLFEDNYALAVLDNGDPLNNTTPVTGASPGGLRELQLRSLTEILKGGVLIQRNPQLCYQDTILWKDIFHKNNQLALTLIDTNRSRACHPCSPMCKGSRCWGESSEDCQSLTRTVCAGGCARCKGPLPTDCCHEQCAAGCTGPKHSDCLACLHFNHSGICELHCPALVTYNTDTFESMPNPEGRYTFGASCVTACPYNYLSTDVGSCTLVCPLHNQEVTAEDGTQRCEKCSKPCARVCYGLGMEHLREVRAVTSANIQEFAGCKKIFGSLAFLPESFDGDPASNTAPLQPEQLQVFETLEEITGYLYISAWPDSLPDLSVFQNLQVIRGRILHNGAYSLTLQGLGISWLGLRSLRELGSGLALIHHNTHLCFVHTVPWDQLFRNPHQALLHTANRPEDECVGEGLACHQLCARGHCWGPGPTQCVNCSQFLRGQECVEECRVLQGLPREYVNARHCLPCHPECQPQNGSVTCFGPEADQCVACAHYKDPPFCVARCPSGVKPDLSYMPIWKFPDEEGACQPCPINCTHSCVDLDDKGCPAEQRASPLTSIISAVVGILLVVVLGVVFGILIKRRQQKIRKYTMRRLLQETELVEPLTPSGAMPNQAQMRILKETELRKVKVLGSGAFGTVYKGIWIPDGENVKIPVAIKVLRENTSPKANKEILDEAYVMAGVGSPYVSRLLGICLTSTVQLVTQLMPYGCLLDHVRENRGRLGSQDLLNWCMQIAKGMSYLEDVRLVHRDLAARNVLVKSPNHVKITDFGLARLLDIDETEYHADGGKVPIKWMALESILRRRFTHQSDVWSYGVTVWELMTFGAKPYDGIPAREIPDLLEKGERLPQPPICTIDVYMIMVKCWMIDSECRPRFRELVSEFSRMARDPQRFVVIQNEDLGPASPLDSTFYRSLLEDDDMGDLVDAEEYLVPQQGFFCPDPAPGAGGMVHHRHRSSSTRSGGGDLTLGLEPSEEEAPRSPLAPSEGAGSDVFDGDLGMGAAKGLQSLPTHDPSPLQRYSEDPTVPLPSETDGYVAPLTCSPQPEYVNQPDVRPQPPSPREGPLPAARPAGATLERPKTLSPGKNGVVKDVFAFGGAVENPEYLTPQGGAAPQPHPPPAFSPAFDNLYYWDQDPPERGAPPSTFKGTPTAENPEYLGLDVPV
Method: c) Clone 24 phospho-erbB2 Cell Assay
This immunofluorescence end point assay measures the ability of a test compound to inhibit the phosphorylation of erbB2 in a MCF7 (breast carcinoma) derived cell line which was generated by transfecting MCF7 cells with the full length erbB2 gene using standard methods to give a cell line that overexpresses full length wild type erbB2 protein (hereinafter ‘Clone 24’ cells).
Clone 24 cells were cultured in Growth Medium (phenol red free Dulbecco's modified Eagle's medium (DMEM) containing 10% foetal bovine serum, 2 mM glutamine and 1.2 mg/ml G418) in a 7.5% CO2 air incubator at 37° C. Cells were harvested from T75 stock flasks by washing once in PBS phosphate buffered saline, pH7.4, Gibco No. 10010-015) and harvested using 2 mls of Trypsin (1.25 mg/ml)/ethylaminediaminetetraacetic acid (EDTA) (0.8 mg/ml) solution. The cells were resuspended in Growth Medium. Cell density was measured using a haemocytometer and viability was calculated using Trypan Blue solution before being further diluted in Growth Medium and seeded at a density of 1×10^4 cells per well (in 100 ul) into clear bottomed 96 well plates (Packard, No. 6005182).
3 days later, Growth Medium was removed from the wells and replaced with 100 ul Assay Medium (phenol red free DMEM, 2 mM glutamine, 1.2 mg/ml G418) either with or without erbB inhibitor compound. Plates were returned to the incubator for 4 hrs and then 20 μl of 20% formaldehyde solution in PBS was added to each well and the plate was left at room temperature for 30 minutes. This fixative solution was removed with a multichannel pipette, 100 μl of PBS was added to each well and then removed with a multichannel pipette and then 50 μl PBS was added to each well. Plates were then sealed and stored for up to 2 weeks at 4° C.
Immunostaining was performed at room temperature. […]
The Fluorescence signal is each well was measured using an Acumen Explorer Instrument (Acumen Bioscience Ltd.), a plate reader that can be used to rapidly quantitate features of images generated by laser-scanning. […]

EGFR tyrosine kinase = target: T3, EGFR tyrosine kinase (Homo sapiens, UniProt P00533); experiment: Test (a) protein tyrosine kinase phosphorylation assay, EGFR; format: biochemical; conditions: recombinant intracellular fragment, ATP at Km; read-out: IC50 Test (a): Inhibition of EGFR tyrosine kinase protein phosphorylation
T3 construct: Recombinant intracellular fragments of EGFR, erbB2 and erbB4; made in house; host or cells: baculovirus/Sf21 insect cells (cleared lysate used)
T3 sequence (P00533 669-1210 limits assumed): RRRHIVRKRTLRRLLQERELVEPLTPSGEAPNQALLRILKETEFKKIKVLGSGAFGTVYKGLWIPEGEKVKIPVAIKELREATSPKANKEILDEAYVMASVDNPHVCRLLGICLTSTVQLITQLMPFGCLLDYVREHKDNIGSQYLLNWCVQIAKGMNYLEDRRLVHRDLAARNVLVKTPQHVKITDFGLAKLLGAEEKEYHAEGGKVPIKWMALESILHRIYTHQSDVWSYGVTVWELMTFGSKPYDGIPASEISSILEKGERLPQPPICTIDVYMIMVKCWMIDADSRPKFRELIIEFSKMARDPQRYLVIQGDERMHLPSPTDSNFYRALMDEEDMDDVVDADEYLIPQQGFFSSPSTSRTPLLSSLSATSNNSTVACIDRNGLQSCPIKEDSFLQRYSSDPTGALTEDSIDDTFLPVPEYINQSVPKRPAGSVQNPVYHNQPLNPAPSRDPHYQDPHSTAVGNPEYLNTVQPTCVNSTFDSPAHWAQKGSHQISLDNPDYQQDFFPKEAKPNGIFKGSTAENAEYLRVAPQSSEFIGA
Method: as §1
This test measures the ability of a test compound to inhibit the phosphorylation of a tyrosine containing polypeptide substrate by EGFR tyrosine kinase enzyme.
as §2, §3, §4, §5

CN(C)CC(=O)N1CCC(Oc2ccc3ncnc(Nc4ccc(OCc5ccccn5)c(Cl)c4)c3c2)CC1 [Example 8]
IC50 (erbB2 tyrosine kinase): 2 nM
IC50 [1]: 210 nM
IC50 (EGFR tyrosine kinase): 39 nM

CN(C)CC(=O)N1CCC(Oc2ccc3ncnc(Nc4ccc(OCc5cnccn5)c(Cl)c4)c3c2)CC1 [Example 9, N-[3-chloro-4-(pyrazin-2-ylmethoxy)phenyl]-6-({1-[(dimethylamino)acetyl]piperidin-4-yl}oxy)quinazolin-4-amine]
IC50 (erbB2 tyrosine kinase): 7 nM
IC50 [1]: 150 nM
IC50 (EGFR tyrosine kinase): 21 nM

CS(=O)(=O)N1CCC(COc2ccc3ncnc(Nc4ccc(OCc5ccccn5)c(Cl)c4)c3c2)C1 (stereo not drawn) [Example 14, N-[3-Chloro-4-(pyridin-2-ylmethoxy)phenyl]-6-{[1-(methylsulfonyl)pyrrolidin-3-yl]methoxy}quinazolin-4-amine]
IC50 (erbB2 tyrosine kinase): 2 nM
IC50 [1]: 4 nM
IC50 (EGFR tyrosine kinase): 213 nM

From patent US20070032508A1, “Quinazoline derivatives as tyrosine kinase inhibitors” (priority 2003, published 2007)
